Measured values as given in BindingDB's records for patent US20240018157 (Schrödinger, 2024).

Tests used:
[1] = target: T1, Mucosa-associated lymphoid tissue lymphoma translocation protein 1 (Homo sapiens, UniProt Q9UDY8); assay: MALT1 Protease Assay 1
T1 sequence (Q9UDY8 whole entry): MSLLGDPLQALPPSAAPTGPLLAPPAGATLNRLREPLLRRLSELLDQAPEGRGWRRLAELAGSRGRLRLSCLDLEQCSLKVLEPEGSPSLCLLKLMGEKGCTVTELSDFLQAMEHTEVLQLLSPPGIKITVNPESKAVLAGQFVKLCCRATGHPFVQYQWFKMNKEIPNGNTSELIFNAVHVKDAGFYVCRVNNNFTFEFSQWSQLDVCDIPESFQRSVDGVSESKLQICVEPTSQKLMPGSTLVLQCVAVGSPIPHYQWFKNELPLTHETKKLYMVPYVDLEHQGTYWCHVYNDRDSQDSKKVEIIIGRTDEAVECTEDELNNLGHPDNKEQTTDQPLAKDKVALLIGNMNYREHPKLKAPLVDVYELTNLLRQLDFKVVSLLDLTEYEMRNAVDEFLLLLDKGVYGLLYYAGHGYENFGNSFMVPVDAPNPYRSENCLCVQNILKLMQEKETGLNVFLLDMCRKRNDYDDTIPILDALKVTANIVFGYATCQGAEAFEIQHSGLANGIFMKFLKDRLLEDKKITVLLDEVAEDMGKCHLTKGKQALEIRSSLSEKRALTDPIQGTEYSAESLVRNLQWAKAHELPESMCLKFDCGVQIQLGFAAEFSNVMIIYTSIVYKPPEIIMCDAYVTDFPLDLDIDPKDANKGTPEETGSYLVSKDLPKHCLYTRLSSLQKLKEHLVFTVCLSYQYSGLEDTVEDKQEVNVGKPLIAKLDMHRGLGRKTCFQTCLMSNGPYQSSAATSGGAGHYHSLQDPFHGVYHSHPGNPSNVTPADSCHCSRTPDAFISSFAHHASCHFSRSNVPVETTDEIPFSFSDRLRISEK
Method: The final assay buffer includes 2 nM of MALT1 full-length protein, 50 μM Ac-LRSR-AMC substrate, 50 mM Tris pH 7.5, 600 mM Sodium Citrate, 1 mM DTT, 1 mM EDTA, and 0.05% BSA in 384-well plate format using black microtiter square well plates (Optiplate 384-F, Perkin Elmer). Test compounds were dissolved in 100% DMSO at stock of 10 mM, with final DMSO concentration 0.1%. Test compounds were pre-incubated with MALT1 protein for 2 h at room temperature. Substrate was added after the pre-incubation and fluorescence signal was measured using Envision at excitation 355 nm and emission 460 nm after 8 hr incubation at RT. Increase in the assay signal was linear over this period and proportional with increase in the enzyme content.

[2] = target: T1, Mucosa-associated lymphoid tissue lymphoma translocation protein 1; assay: MALT1 Protease Assay 2
Method: Test compounds were dissolved in 100% DMSO at stock of 10 mM, with final DMSO concentration 0.1%. Test compounds were pre-incubated with MALT1 protein for 2 h at room temperature.

Compound	IC50 [1] [nM]	IC50 [2] [nM]
C[C@@]1(C(F)(F)F)CN(C(=O)N[C@@H]2CCCC(F)(F)C2)c2cnc3cc(Cl)nn3c21 [US20240018157, Example 54]	> 1000	100 to 1000
C[C@@]1(C(F)(F)F)CN(C(=O)Nc2cnc(-n3ccnn3)c(C(F)(F)F)c2)c2cnc3cc(Cl)nn3c21 [US20240018157, Example 44]	< 10	–
